Bases are written 5' to 3'; sugars and linkages follow in the same order, as letters with counts (s phosphorothioate, o phosphodiester; PS: all linkages phosphorothioate). The collection does not say whether C is 5-methylated. l = locked nucleic acid (LNA); d = 2'-deoxy (DNA)
The sequences below were run against Tau (assay: rat primary cortical neurons, FLIPR, 25 uM ASO).

Sequence	calcium oscillation score
TATTTCCAAATTCACTTTTA (sugars llddldldddddddddllll, PS)	152 % of control
TATTTCCAAATTCACTTTTA (sugars llddlldddddddddldlll, PS)	120 % of control
TATTTCCAAATTCACTTTTA (sugars llddlldddddddddlldll, PS)	123 % of control
TATTTCCAAATTCACTTTTA (sugars lldlddldddddddddllll, PS)	114 % of control
TATTTCCAAATTCACTTTTA (sugars lldldlddddddddddllll, PS)	127 % of control
TATTTCCAAATTCACTTTTA (sugars lldldldddddddddldlll, PS)	129 % of control
TATTTCCAAATTCACTTTTA (sugars lldldldddddddddlldll, PS)	141 % of control
TATTTCCAAATTCACTTTTA (sugars lldllddddddddddlldll, PS)	119 % of control
TATTTCCAAATTCACTTTTA (sugars lldlldddddddddlddlll, PS)	76.7 % of control
TATTTCCAAATTCACTTTTA (sugars lldlldddddddddldldll, PS)	110 % of control
TATTTCCAAATTCACTTTTA (sugars lldlldddddddddllddll, PS)	114 % of control
TATTTCCAAATTCACTTTTA (sugars lllddldddddddddldlll, PS)	147 % of control
TATTTCCAAATTCACTTTTA (sugars lllddldddddddddlldll, PS)	127 % of control
TATTTCCAAATTCACTTTTA (sugars llldlddddddddddldlll, PS)	129 % of control
TATTTCCAAATTCACTTTTA (sugars llldldddddddddlddlll, PS)	125 % of control
TATTTCCAAATTCACTTTTA (sugars llldldddddddddldldll, PS)	108 % of control
TATTTCCAAATTCACTTTTA (sugars llldldddddddddllddll, PS)	135 % of control
TCAAAATCCTTAATTTAACC (sugars l4 d12 l4, PS)	70.7 % of control
TCAAACACACCTTCATTTAC (sugars l2 d14 l4, PS)	82.2 % of control
TCAAACTAATATTAACACT (sugars l4 d11 l4, PS)	80.8 % of control
TCAAATCAATTCTCATTTCA (sugars l3 d13 l4, PS)	62 % of control
TCAACATTACCCTTAAATAT (sugars l4 d13 l3, PS)	82.4 % of control
TCAACTCTTAGCATCCA (sugars l4 d11 l2, PS)	37.5 % of control
TCAACTCTTAGCATCCAC (sugars l2 d13 l3, PS)	50 % of control
TCAACTGGTTTGTAGA (sugars l3 d10 l3, PS)	110 % of control
TCAACTGGTTTGTAGACTAT (sugars l3 d14 l3, PS)	29.9 % of control
TCAATTCTCATTTCAACCTT (sugars l2 d15 l3, PS)	70.7 % of control

Sequence	calcium oscillation score
TCAATTTCCCTGTTAAT (sugars l4 d11 l2, PS)	53.4 % of control
TCAATTTGGAAAGATGAAAT (sugars l3 d14 l3, PS)	0 % of control
TCACAAACCCTGCTTGGCCA (sugars l3 d14 l3, PS)	27.6 % of control
TCACAACCCAAGATTCCC (sugars l2 d14 l2, PS)	69.5 % of control
TCACACACATGATTATC (sugars l4 d9 l4, PS)	78.5 % of control
TCACCACTTTAATCTGC (sugars l2 d12 l3, PS)	45.7 % of control
TCACCACTTTAATCTGCC (sugars l2 d14 l2, PS)	69 % of control
TCACTCATGCCTTAATC (sugars l4 d11 l2, PS)	62 % of control
TCACTTTACACATTAAATTT (sugars l4 d12 l4, PS)	62.5 % of control
TCAGATTTAATTCTCAC (sugars l4 d9 l4, PS)	50.7 % of control
TCAGATTTTACTTCCACC (sugars l2 d13 l3, PS)	57.5 % of control
TCAGCTAAGACCCTCAGGTT (sugars l3 d14 l3, PS)	33 % of control
TCAGCTAGCGTGGCGA (sugars l3 d10 l3, PS)	75.9 % of control
TCAGCTCTTCCATAAGCAGG (sugars l3 d14 l3, PS)	38.5 % of control
TCAGCTTGTGGGTTTCAATC (sugars l3 d14 l3, PS)	13.3 % of control
TCAGGTCAACTGGTTT (sugars l3 d10 l3, PS)	95.9 % of control
TCAGGTCAACTGGTTTGTAG (sugars l3 d14 l3, PS)	0 % of control
TCAGGTCTGGCATGG (sugars l3 d9 l3, PS)	0 % of control
TCAGTCCTAATCCTGT (sugars l3 d10 l3, PS)	53.3 % of control
TCATAAATGACTATACTTAT (sugars l3 d14 l3, PS)	80.6 % of control
TCATAGTCACTCTGGT (sugars l3 d10 l3, PS)	85.7 % of control
TCATCACCAAGTCCCAA (sugars l2 d12 l3, PS)	61.7 % of control
TCATCGCTTCCAGTCC (sugars l3 d10 l3, PS)	19.2 % of control
TCATCTTTTCTAGAAC (sugars l4 d8 l4, PS)	77.3 % of control
TCATCTTTTCTAGAACC (sugars l4 d10 l3, PS)	70.9 % of control
TCATCTTTTCTAGAACCC (sugars l3 d13 l2, PS)	48.4 % of control
TCATGAGCACTAACTCTAAG (sugars l3 d14 l3, PS)	35.7 % of control

Sequence	calcium oscillation score
TCATTCAGCCAATCAC (sugars l4 d9 l3, PS)	52.4 % of control
TCATTCAGCCAATCACA (sugars l3 d11 l3, PS)	45.6 % of control
TCATTTACCAATTATCTTTA (sugars l4 d13 l3, PS)	48.8 % of control
TCATTTTTCTCAAGCTCC (sugars l2 d14 l2, PS)	55.8 % of control
TCATTTTTTATTCATAACTT (sugars l4 d12 l4, PS)	62.3 % of control
TCCAAAACATTCTCACCAAA (sugars l4 d14 l2, PS)	85.7 % of control
TCCAAACTTTTACTCTG (sugars l3 d10 l4, PS)	31.2 % of control
TCCAAAGCATCAAATCC (sugars l3 d11 l3, PS)	85.5 % of control
TCCAAGTCAATGCCTGGCTT (sugars l3 d14 l3, PS)	18.1 % of control
TCCAATACTAGATCTA (sugars l4 d9 l3, PS)	71.9 % of control
TCCACAAACCAACTCAA (sugars l3 d10 l4, PS)	99.5 % of control
TCCACAAACCAACTCAAC (sugars l4 d12 l2, PS)	95.9 % of control
TCCACAAACCAACTCAACA (sugars l2 d13 l4, PS)	102 % of control
TCCACAAACCAACTCAACAT (sugars l2 d15 l3, PS)	75.2 % of control
TCCACCCTTACACATA (sugars l3 d11 l2, PS)	48.8 % of control
TCCACCCTTACACATAG (sugars l3 d12 l2, PS)	40.4 % of control
TCCACTTAGACACTCTT (sugars l2 d11 l4, PS)	50 % of control
TCCACTTAGACACTCTTT (sugars l3 d13 l2, PS)	37.5 % of control
TCCAGCCATATTTCAACTCT (sugars l3 d14 l3, PS)	45.2 % of control
TCCAGCTACTTACCCAA (sugars l2 d12 l3, PS)	89 % of control
TCCAGGGACCCAATCTTCGA (sugars l3 d14 l3, PS)	0 % of control
TCCAGTCCCGTCTTTG (sugars l3 d10 l3, PS)	11.5 % of control
TCCATCCTAAGTCAAC (sugars l3 d9 l4, PS)	65.3 % of control
TCCATTAATTTAGCCA (sugars l4 d10 l2, PS)	54.1 % of control
TCCATTAGTCTCTTCA (sugars l3 d11 l2, PS)	65.1 % of control
TCCATTCCCTCCAGAACCAT (sugars l3 d14 l3, PS)	61.9 % of control
TCCATTTTCACTGTTCA (sugars l3 d12 l2, PS)	87.7 % of control

Sequence	calcium oscillation score
TCCATTTTCTGACTCTA (sugars l3 d12 l2, PS)	40.4 % of control
TCCCAAATTCCTCATAATCC (sugars l2 d16 l2, PS)	64.5 % of control
TCCCAACTCTTTGAACAC (sugars l3 d13 l2, PS)	83.5 % of control
TCCCACCATCCACGCTC (sugars l2 d13 l2, PS)	64.7 % of control
TCCCAGCGTGATCT (sugars l3 d8 l3, PS)	3.83 % of control
TCCCAGCGTGATCTTCCATC (sugars l4 d11 l5, PS)	55.4 % of control
TCCCAGCGTGATCTTCCATC (sugars l5 d11 l4, PS)	85.2 % of control
TCCCAGCGTGATCTTCCATC (sugars ldlllddddddddddlldll, PS)	74.5 % of control
TCCCAGCGTGATCTTCCATC (sugars lldllddddddddddlldll, PS)	106 % of control
TCCCATCACTAGCACTA (sugars l2 d13 l2, PS)	32.8 % of control
TCCCCACCCAAACTCCA (sugars l2 d13 l2, PS)	80.8 % of control
TCCCCACCCAAACTCCAA (sugars l2 d14 l2, PS)	76.5 % of control
TCCCCATTTATCCTTCA (sugars l2 d13 l2, PS)	65.9 % of control
TCCCCATTTATCCTTCAT (sugars l2 d13 l3, PS)	77.3 % of control
TCCCCCAAAATATCTCA (sugars l2 d12 l3, PS)	87.1 % of control
TCCCCCAAAATATCTCAA (sugars l3 d13 l2, PS)	53.9 % of control
TCCCGTCTTTGCTTTTACTG (sugars l3 d14 l3, PS)	3.7 % of control
TCCCTAATCCCCAAAGA (sugars l2 d13 l2, PS)	53.9 % of control
TCCCTTAACAATATGCT (sugars l2 d11 l4, PS)	75.1 % of control
TCCCTTAATTTCAC (sugars l3 d8 l3, PS)	133 % of control
TCCCTTAATTTCACC (sugars l3 d9 l3, PS)	80.5 % of control
TCCCTTTCAAACCAGC (sugars l2 d10 l4, PS)	92.3 % of control
TCCTAAGTCAACCACAC (sugars l4 d11 l2, PS)	56.6 % of control
TCCTAAGTCAACCACACC (sugars l2 d14 l2, PS)	69 % of control
